In DBAASP:
Values after ≈ are worked out from the molar mass of the structure shown. Values joined by “and” are separate entries in the source; they are usually repeats but may differ in a detail not shown here. Equal entries are not always repeated.

Columns and labels:
Assay in all cases: ≥ marks a high value that may be exact or a test limit, other limits are often not marked, values filed in µg/mL are converted to µM
[1] = test system: Salmonella typhimurium ATCC 7731
[2] = test system: Staphylococcus aureus ATCC 43300
[3] = test system: Escherichia coli UB1005
[4] = test system: Pseudomonas aeruginosa ATCC 27853
[5] = test system: Staphylococcus epidermidis ATCC 12228
[6] = test system: Bacillus subtilis CMCC 63501
[7] = test system: Enterococcus faecalis ATCC 29212
[8] = test system: Salmonella enterica subsp. enterica serovar Pullorum C79-13
[9] = test system: Staphylococcus aureus NCTC 10788
[10] = test system: Candida albicans NCPF 1467
[11] = test system: Staphylococcus aureus NCTC 12493
[12] = test system: Enterococcus faecalis NCTC 12697
[13] = test system: Escherichia coli NCTC 10418
[14] = test system: Micrococcus luteus ATCC 4698
[15] = test system: Salmonella enterica subsp. enterica serovar Typhimurium ATCC 14028
[16] = test system: Bacillus megaterium
[17] = test system: Staphylococcus aureus ATCC 25923
[18] = test system: Escherichia coli ATCC 25922
[19] = test system: Escherichia coli ML-35
[20] = test system: Staphylococcus aureus ATCC 29213
[21] = test system: Salmonella typhimurium KCTC 1926
[22] = test system: Pseudomonas aeruginosa ATCC 15692

| MIC [1] | MIC [2] | MIC [3] | MIC [4] | MIC [5] | MIC [6] | MIC [7] | MIC [8] | SMILES | further results |
| --- | --- | --- | --- | --- | --- | --- | --- | --- | --- |
| 8 µM (≈ 15.3 µg/mL) | 16 µM (≈ 30.5 µg/mL) | 4 µM (≈ 7.63 µg/mL) | 4 µM (≈ 7.63 µg/mL) | 16 µM (≈ 30.5 µg/mL) | 8 µM (≈ 15.3 µg/mL) | 8 µM (≈ 15.3 µg/mL) | 4 µM (≈ 7.63 µg/mL) | CC[C@H](C)[C@H](N)C(=O)N[C@@H](Cc1cnc[nH]1)C(=O)N[C@@H](CCCCN)C(=O)N[C@@H](Cc1ccccc1)C(=O)N[C@@H](Cc1c[nH]c2ccccc12)C(=O)N[C@@H](CCCN=C(N)N)C(=O)N1CCC[C@H]1C(=O)NCC(=O)N[C@@H](CCCN=C(N)N)C(=O)N[C@@H](Cc1c[nH]c2ccccc12)C(=O)N[C@@H](Cc1ccccc1)C(=O)N[C@@H](CCCCN)C(=O)N[C@@H](Cc1cnc[nH]1)C(=O)N[C@H](C(N)=O)[C@@H](C)CC [IHKFWRPGRWFKHI] | – |
| 8 µM (≈ 17.3 µg/mL) | 2 µM (≈ 4.32 µg/mL) | 2 µM (≈ 4.32 µg/mL) | 16 µM (≈ 34.6 µg/mL) | 16 µM (≈ 34.6 µg/mL) | 8 µM (≈ 17.3 µg/mL) | 16 µM (≈ 34.6 µg/mL) | 2 µM (≈ 4.32 µg/mL) | CC(C)C[C@H](NC(=O)[C@H](CCCNC(=N)N)NC(=O)CNC(=O)CNC(=O)[C@@H](N)CCCNC(=N)N)C(=O)N[C@@H](CS)C(=O)N[C@@H](Cc1ccc(O)cc1)C(=O)N[C@@H](CS)C(=O)N[C@@H](CCCNC(=N)N)C(=O)N[C@@H](CCCNC(=N)N)C(=O)N[C@@H](CCCNC(=N)N)C(=O)N[C@@H](Cc1ccccc1)C(=O)N[C@@H](CS)C(=O)N[C@H](C(=O)N[C@@H](CS)C(=O)N[C@H](C(=O)NCC(=O)N[C@@H](CCCNC(=N)N)C(N)=O)C(C)C)C(C)C [RGGRLCYCRRRFCVCVGR] | – |
| – | – | – | 2 µM (≈ 5.52 µg/mL) | – | – | – | – | CC[C@H](C)[C@H](NC(=O)[C@@H]1CCCN1C(=O)[C@H](CC(C)C)NC(=O)[C@@H](N)Cc1ccccc1)C(=O)N[C@H](C(=O)N[C@@H](C)C(=O)N[C@@H](CCCCN)C(=O)N[C@@H](CC(C)C)C(=O)N[C@@H](CC(C)C)C(=O)N[C@@H](CO)C(=O)NCC(=O)N[C@@H](CC(C)C)C(=O)N[C@@H](CC(C)C)C(=O)NCC(=O)N[C@@H](CCCN=C(N)N)C(=O)N[C@@H](CCCCN)C(=O)N[C@@H](CCCCN)C(=O)N[C@@H](CCCN=C(N)N)C(=O)N[C@@H](CCCN=C(N)N)C(=O)N[C@@H](CCC(N)=O)C(=O)N[C@@H](CCCN=C(N)N)C(=O)N[C@@H](CCCN=C(N)N)C(=O)N[C@@H](CCCN=C(N)N)C(N)=O)C(C)C [FLPIVAKLLSGLLGRKKRRQRRR] | MIC [9]: 1 µM (≈ 2.76 µg/mL); MIC [10]: 1 µM (≈ 2.76 µg/mL); MIC [11]: 2 µM (≈ 5.52 µg/mL); MIC [12]: 2 µM (≈ 5.52 µg/mL); MIC [13]: 2 µM (≈ 5.52 µg/mL) |
| – | – | – | – | – | – | – | – | CC(C)C[C@H](NC(=O)[C@H](CCCN=C(N)N)NC(=O)[C@H](Cc1cnc[nH]1)NC(=O)[C@H](Cc1c[nH]c2ccccc12)NC(=O)CNC(=O)CNC(=O)[C@@H](N)CO)C(=O)N[C@@H](CCCN=C(N)N)C(=O)N[C@@H](CO)C(=O)O [SGGWHRLRS] | MIC [14]: ≥ 75 µM |
| – | – | – | > 64 µM | – | – | – | – | CC[C@H](C)[C@H](NC(=O)[C@H](CCCCN)NC(=O)[C@H](CCCCN)NC(=O)[C@H](CC(C)C)NC(=O)[C@H](CCCCN)NC(=O)[C@H](CCC(=O)O)NC(=O)[C@H](CCCCN)NC(=O)[C@H](CCCCN)NC(=O)[C@H](CCCCN)NC(=O)[C@H](CC(N)=O)NC(=O)[C@H](CCCN=C(N)N)NC(=O)[C@H](Cc1ccccc1)NC(=O)[C@H](CCCCN)NC(=O)[C@H](CCCN=C(N)N)NC(=O)[C@H](CCCCN)NC(=O)[C@H](CCCN=C(N)N)NC(=O)[C@H](CCCCN)NC(=O)[C@H](CCCN=C(N)N)NC(=O)[C@H](CC(C)C)NC(=O)CN)C(=O)O [GLRKRKRKFRNKKKEKLKKI] | MIC [15]: > 64 µM; MIC [16]: ≥ 64 µM; MIC [17]: > 64 µM; MIC [18]: > 64 µM; MIC [19]: ≥ 64 µM |
| 8 µM (≈ 20.6 µg/mL) | 8 µM (≈ 20.6 µg/mL) | 8 µM (≈ 20.6 µg/mL) | 8 µM (≈ 20.6 µg/mL) | 8 µM (≈ 20.6 µg/mL) | 16 µM (≈ 41.2 µg/mL) | 16 µM (≈ 41.2 µg/mL) | 8 µM (≈ 20.6 µg/mL) | CC[C@H](C)[C@H](N)C(=O)N[C@@H](Cc1cnc[nH]1)C(=O)N[C@@H](CCCCN)C(=O)N[C@@H](Cc1ccccc1)C(=O)N[C@@H](Cc1c[nH]c2ccccc12)C(=O)N[C@@H](CCCN=C(N)N)C(=O)N[C@@H](CS)C(=O)N[C@@H](CCCN=C(N)N)C(=O)N[C@@H](CCCN=C(N)N)C(=O)N[C@@H](CCCN=C(N)N)C(=O)N[C@@H](Cc1ccccc1)C(=O)N[C@@H](CS)C(=O)N[C@@H](CCCN=C(N)N)C(=O)N[C@@H](Cc1c[nH]c2ccccc12)C(=O)N[C@@H](Cc1ccccc1)C(=O)N[C@@H](CCCCN)C(=O)N[C@@H](Cc1cnc[nH]1)C(=O)N[C@H](C(N)=O)[C@@H](C)CC [IHKFWRCRRRFCRWFKHI] | MIC [20]: 8 µM and 16 µM |
| – | – | – | – | – | – | – | – | CC[C@H](C)[C@H](NC(=O)[C@H](C)NC(=O)[C@H](Cc1cnc[nH]1)NC(=O)[C@@H]1CCCN1C(=O)[C@@H](NC(=O)[C@H](CC(C)C)NC(=O)[C@H](CO)NC(=O)[C@H](Cc1ccccc1)NC(=O)[C@H](CC(C)C)NC(=O)[C@@H](N)Cc1ccccc1)[C@@H](C)CC)C(=O)NCC(=O)NCC(=O)N[C@@H](CC(C)C)C(=O)N[C@H](C(=O)N[C@@H](CO)C(=O)N[C@@H](C)C(=O)N[C@@H](Cc1ccccc1)C(=O)N[C@@H](CCCCN)C(N)=O)[C@@H](C)CC [FLFSLIPHAIGGLISAFK] | MIC [9]: 20 µM (≈ 38.6 µg/mL); MIC [10]: ≥ 64 µM; MIC [13]: ≥ 150 µM |
| – | – | – | – | – | – | – | – | CC[C@H](C)[C@H](NC(=O)[C@H](Cc1cnc[nH]1)NC(=O)[C@H](Cc1cnc[nH]1)NC(=O)[C@@H](NC(=O)[C@H](CC(C)C)NC(=O)[C@H](Cc1cnc[nH]1)NC(=O)CNC(=O)[C@H](C)NC(=O)CNC(=O)[C@H](Cc1cnc[nH]1)NC(=O)[C@@H](NC(=O)[C@@H](NC(=O)[C@H](CO)NC(=O)CNC(=O)[C@H](C)NC(=O)[C@H](Cc1ccccc1)NC(=O)[C@H](CCCN=C(N)N)NC(=O)[C@H](CC(C)C)NC(=O)[C@@H](N)Cc1ccccc1)C(C)C)[C@@H](C)CC)C(C)C)C(=O)NCC(=O)N[C@H](C(=O)N[C@@H](C)C(=O)N[C@@H](CC(C)C)C(N)=O)C(C)C [FLRFAGSVIHGAGHLVHHIGVAL] | MIC [21]: ≥ 64 µM; MIC [18]: 4 µM and 8 µM; MIC [22]: ≥ 32 µM |
| – | – | – | – | – | – | – | – | CC[C@H](C)[C@H](NC(=O)CNC(=O)[C@H](Cc1cnc[nH]1)NC(=O)[C@@H](NC(=O)[C@@H](NC(=O)[C@H](CO)NC(=O)CNC(=O)[C@@H](NC(=O)[C@H](Cc1ccccc1)NC(=O)[C@H](CCCN=C(N)N)NC(=O)[C@H](CC(C)C)NC(=O)[C@@H](N)Cc1ccccc1)[C@@H](C)CC)C(C)C)[C@@H](C)CC)C(=O)NCC(=O)N[C@@H](Cc1cnc[nH]1)C(=O)N[C@@H](CC(C)C)C(=O)N[C@H](C(=O)N[C@@H](Cc1cnc[nH]1)C(=O)N[C@@H](Cc1cnc[nH]1)C(=O)N[C@H](C(=O)NCC(=O)N[C@H](C(=O)N[C@@H](C)C(=O)N[C@@H](CC(C)C)C(N)=O)C(C)C)[C@@H](C)CC)C(C)C [FLRFIGSVIHGIGHLVHHIGVAL] | MIC [21]: ≥ 64 µM; MIC [22]: ≥ 64 µM |
